Laboratory results from US8674096B2, “Substituted imidazo[1,5-a]quinoxalin-4-ones as phosphodiesterase 9 inhibitors” (priority 2009, dated 2014).

Row | Compound | melting point
1 | Cc1cc2c(cc1C(=O)N1CCc3cc(Cl)ccc31)[nH]c(=O)c1nnc(C3CCC3)n12.Cl | 225 to 228 °C
2 | Cc1cc2c(cc1C(=O)N1CCc3cccnc31)[nH]c(=O)c1nnc(C3CCCOC3)n12 (stereo not drawn) | 314 °C (dec.)
3 | Cc1cc2c(cc1C(=O)N1CCc3cc(Cl)ccc31)[nH]c(=O)c1nnc(CC3CCSCC3)n12.Cl | 215 to 218 °C
4 | Cc1cc2c(cc1C(=O)N1CCc3cc(F)c(Cl)cc31)[nH]c(=O)c1nnc(C3CCOCC3)n12.Cl | 316 to 319 °C
5 | Cc1cc2c(cc1C(=O)N1CCc3cc(Cl)ccc31)[nH]c(=O)c1nnc(-c3ccccc3)n12 | 248 to 249 °C
6 | Cc1cc2c(cc1C(=O)N1Cc3ccccc3C1)[nH]c(=O)c1nnc(C3CCC3)n12.Cl | 236 °C (dec.)
7 | CC(C)c1ncc2c(=O)[nH]c3cc(C(=O)N4CCOC(c5ccccc5)C4)ccc3n12.Cl (stereo not drawn) | 268 to 271 °C
8 | O=C(c1ccc2c(c1)[nH]c(=O)c1nnc(C3CCOCC3)n12)N1CCOC(c2ccccc2)C1 (stereo not drawn) | 275 to 276 °C
9 | COc1cc2c(cc1C(=O)N1CCc3cc(F)ccc31)[nH]c(=O)c1cnc(C3CCOCC3)n12.Cl | 321 to 324 °C (dec.)
10 | Cc1cc2c(cc1C(=O)N1Cc3ccccc3C1)[nH]c(=O)c1nnc([C@H]3CC[C@H](C)CC3)n12 | 318 to 321 °C
11 | Cc1cc2c(cc1C(=O)N1CCc3cc(Cl)ccc31)[nH]c(=O)c1nnc(C3CCOCC3)n12 | 335 to 336 °C
12 | Cc1cc2c(cc1C(=O)N1CCc3cc(F)ccc31)[nH]c(=O)c1cnc([C@H]3CC[C@@H](O)CC3)n12.Cl | 200 to 202 °C
13 | Cc1cc2c(cc1C(=O)N1CCc3cc(Br)cnc31)[nH]c(=O)c1nnc(C3CCCOC3)n12 (stereo not drawn) | 218 to 220 °C (dec.)
14 | Cc1cc2c(cc1C(=O)N1CCN(C)C(c3ccccc3)C1)[nH]c(=O)c1cnc(C3CCCC3)n12 (stereo not drawn) | 246 to 248 °C
15 | Cc1cc2c(cc1C(=O)N1CCc3cc(Cl)ccc31)[nH]c(=O)c1nnc(CC3CC3)n12 | 303 to 305 °C
16 | O=C(c1cc2[nH]c(=O)c3nnc(C4CCOCC4)n3c2cc1Br)N1Cc2ccccc2C1 | 350 °C (dec.)
17 | COCc1cc2c(cc1C(=O)N1Cc3c(F)ccc(F)c3C1)[nH]c(=O)c1cnc(C3CCOCC3)n12.Cl | 172 to 174 °C
18 | Cc1cnc2c(c1)CCN2C(=O)c1cc2[nH]c(=O)c3cnc(C4CCOCC4)n3c2cc1C | 313 to 315 °C
19 | Cc1cc2c(cc1C(=O)N1Cc3cccc(C)c3C1)[nH]c(=O)c1cnc(C3CCOC3)n12.Cl (stereo not drawn) | 270 to 272 °C (dec.)
20 | Cc1cc2c(cc1C(=O)N1Cc3cccc(F)c3C1)[nH]c(=O)c1cnc(C3CCOC3)n12.Cl (stereo not drawn) | 203 to 205 °C
21 | Cc1cc2c(cc1C(=O)N1CCc3cc(C4CC4)cnc31)[nH]c(=O)c1nnc(C3CCCOC3)n12 (stereo not drawn) | 204 to 206 °C
22 | O=C(c1ccc2c(c1)[nH]c(=O)c1nnc(C3CCOCC3)n12)N1CCc2c(Cl)cccc2C1 | 318 °C (dec.)
23 | Cc1cc2c(cc1C(=O)N1Cc3ccccc3C1)[nH]c(=O)c1nnc(C3(C)CCOCC3)n12 | 232 °C (dec.)
24 | Cc1cc2c(cc1C(=O)N1Cc3cccc(Cl)c3C1)[nH]c(=O)c1nnc(C3CCOCC3)n12 | 329 °C (dec.)
25 | Cc1cc2c(cc1C(=O)N1CCc3cc(Br)cnc31)[nH]c(=O)c1nnc(C3CCC(F)(F)CC3)n12 | 343 °C (dec.)
26 | Cc1cc2c(cc1C(=O)N1Cc3cccc(N4CCOCC4)c3C1)[nH]c(=O)c1cnc(C3CCOCC3)n12.Cl | 225 °C (dec.)
27 | COc1cc2c(cc1C(=O)N1CCc3cc(Cl)ccc31)[nH]c(=O)c1cnc(C3CCOCC3)n12.Cl | 328 to 330 °C (dec.)

Row | Compound | melting point
28 | COc1cc2c(cc1C(=O)N1CCOC(c3ccccc3)C1)[nH]c(=O)c1cnc(C3CCCCC3)n12.Cl (stereo not drawn) | 182 to 186 °C
29 | COc1cc2c(cc1C(=O)N1Cc3ccc(Cl)cc3C1)[nH]c(=O)c1cnc(C3CCOCC3)n12.Cl | 210 to 213 °C (dec.)
30 | COCc1cc2c(cc1C(=O)N1CCc3cc(F)ccc31)[nH]c(=O)c1cnc(C3CCOCC3)n12.Cl | 301 to 304 °C (dec.)
31 | Cl.O=C(c1cc2[nH]c(=O)c3cnc(C4CCOCC4)n3c2cc1Cl)N1Cc2ccccc2C1 | 332 °C (dec.)
32 | Cc1ccc2c(c1)CCN2C(=O)c1cc2[nH]c(=O)c3cnc(C4CCOC4)n3c2cc1C.Cl (stereo not drawn) | 186 to 188 °C (dec.)
33 | Cl.O=C(c1cc2[nH]c(=O)c3cnc(C4CCOCC4)n3c2cc1C1CC1)N1Cc2ccc(Cl)cc2C1 | 199 to 203 °C (dec.)
34 | Cc1cc2c(cc1C(=O)N1Cc3ccccc3C1)[nH]c(=O)c1cnc([C@@H]3CCC[C@@H]3O)n12 (racemic) | 301 to 302 °C (dec.)
35 | Cl.O=C(c1cc2[nH]c(=O)c3cnc(C4CCOCC4)n3c2cc1C1CC1)N1Cc2ccccc2C1 | 185 to 189 °C (dec.)
36 | Cc1cc2c(cc1C(=O)N1CCc3cc(F)ccc31)[nH]c(=O)c1nnc(C3CCOCC3)n12.Cl | 221 to 223 °C
37 | Cc1cc2c(cc1C(=O)N1Cc3ccccc3C1)[nH]c(=O)c1nnc(C3CCOC(C)(C)C3)n12 (stereo not drawn) | 287 °C (dec.)
38 | Cc1cc2c(cc1C(=O)N1CCc3cccc(C(=O)O)c3C1)[nH]c(=O)c1cnc(C3CCOCC3)n12.Cl | 212 to 213 °C
39 | Cc1cc2c(cc1C(=O)N1CCc3cc(Cl)ccc31)[nH]c(=O)c1cnc([C@@H]3CCC[C@@H]3O)n12 (racemic) [Example 343] | 238 to 240 °C
40 | Cc1cc2c(cc1C(=O)N1Cc3cccc(Cl)c3C1)[nH]c(=O)c1cnc(C3CCOCC3)n12.Cl | 198 to 200 °C
41 | Cc1cc2c(cc1C(=O)N1CCc3cc(Br)cnc31)[nH]c(=O)c1cnc([C@H]3CC[C@@H](O)CC3)n12.Cl | 305 to 307 °C
42 | CC(C)c1ncc2c(=O)[nH]c3cc(C(=O)N4CCc5c(Cl)cccc5C4)ccc3n12.Cl | 328 to 329 °C
43 | Cc1cc2c(cc1C(=O)N1Cc3ccccc3C1)[nH]c(=O)c1nnc(CC3CC[S+]([O-])CC3)n12 (stereo not drawn) | 248 °C (dec.)
44 | COCc1cc2c(cc1C(=O)N1Cc3ccccc3C1)[nH]c(=O)c1cnc(C3CCOCC3)n12.Cl | 261 to 264 °C (dec.)
45 | Cc1cc2c(cc1C(=O)N1Cc3cccc(C)c3C1)[nH]c(=O)c1cnc(C3CCCOC3)n12.Cl (stereo not drawn) | 283 °C (dec.)
46 | Cc1cc2c(cc1C(=O)N1Cc3cccc(F)c3C1)[nH]c(=O)c1cnc(C3CCOCC3)n12.Cl | 201 to 203 °C
47 | COCc1cc2c(cc1C(=O)N1Cc3cccc(F)c3C1)[nH]c(=O)c1cnc(C3CCOCC3)n12.Cl | 277 °C (dec.)
48 | Cc1cc2c(cc1C(=O)N1CCc3ncccc3C1)[nH]c(=O)c1cnc(C3CCOCC3)n12 | 236 to 239 °C
49 | Cl.O=C(c1cc2[nH]c(=O)c3cnc(C4CCOCC4)n3c2cc1C1CC1)N1CCc2cc(F)ccc21 | 318 to 321 °C (dec.)
50 | Cc1cc2c(cc1C(=O)N1CCc3cccnc31)[nH]c(=O)c1nnc(C3CCCC3)n12 | 207 to 209 °C
51 | Cc1cc2c(cc1C(=O)N1CCc3c(Cl)cccc3C1)[nH]c(=O)c1cnc(C3CCCC3)n12 | 297 to 299 °C
52 | Cc1cc2c(cc1C(=O)N1CCc3onc(-c4ccc(Cl)cc4)c3C1)[nH]c(=O)c1nnc(C3CCOC3)n12.Cl (stereo not drawn) | 219 to 221 °C
53 | Cl.O=C(c1cc2[nH]c(=O)c3cnc(C4CCOCC4)n3c2cc1C1CC1)N1Cc2cccc(F)c2C1 | 205 to 207 °C
54 | Cc1cc2c(cc1C(=O)N1Cc3ccc(F)cc3C1)[nH]c(=O)c1cnc(C3CCOCC3)n12.Cl | 200 to 203 °C
